Results from publication PMC9369311, “Examination of Intracellular GPCR-Mediated Signaling with High Temporal Resolution” (International Journal of Molecular Sciences, 2022).
“And” between values parts separate entries of the source, which are not always exact repeats. Equal entries are not always repeated. Where two headings read alike, the source gives them in different places.

Target: T1, DmOctα1B receptor (Drosophila melanogaster, UniProt Q7JQF1)
T1 construct: expressed in transfected cells
T1 sequence (Q7JQF1 1-645): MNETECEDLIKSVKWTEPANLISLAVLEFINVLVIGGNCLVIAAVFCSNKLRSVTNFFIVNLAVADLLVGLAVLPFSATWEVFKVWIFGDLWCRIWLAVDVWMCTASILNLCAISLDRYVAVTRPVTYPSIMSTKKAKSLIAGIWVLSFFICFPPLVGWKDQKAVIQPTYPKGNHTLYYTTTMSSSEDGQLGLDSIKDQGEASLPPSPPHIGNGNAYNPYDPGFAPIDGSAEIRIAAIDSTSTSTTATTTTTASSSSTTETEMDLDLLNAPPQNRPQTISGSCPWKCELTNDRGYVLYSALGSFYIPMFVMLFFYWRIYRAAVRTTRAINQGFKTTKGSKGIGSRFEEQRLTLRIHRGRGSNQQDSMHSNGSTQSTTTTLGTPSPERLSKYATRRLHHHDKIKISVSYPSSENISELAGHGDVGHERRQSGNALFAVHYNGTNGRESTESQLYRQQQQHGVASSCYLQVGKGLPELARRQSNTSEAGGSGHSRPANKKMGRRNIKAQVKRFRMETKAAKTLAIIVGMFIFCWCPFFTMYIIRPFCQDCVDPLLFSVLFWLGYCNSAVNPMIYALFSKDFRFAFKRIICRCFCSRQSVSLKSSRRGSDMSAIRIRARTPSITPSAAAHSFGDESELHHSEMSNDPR
Test: Ca2+ fluorimetry in plate reader (96 MWP), DmOctα1B-expressing HEK293 cells
Type: cell-based
Method: Both the DmOctα1B receptor- and DmOctβ1 receptor-expressing (=flpTM-DmOctβ1) cell lines were initially investigated via Ca^2+ fluorimetric measurements in a plate reader. The cells were seeded in 96 well plates and loaded with Fluo-4, enabling the detection of changes in [Ca^2+]i. The Fluo-4 was excited at 485 nm and the fluorescence emission was recorded at 510 nm. To overcome the cAMP degradation by cell-endogenous phosphodiesterases, the DmOctβ1-expressing cells were treated with 100 µM iso-butylmethylxanthine (IBMX). Prior to the ligand application, the basal fluorescence (F0) was recorded and the concentration–response curves were generated by plotting the changes in fluorescence ((Fmax − F0)/F0 = ΔF/F0) against the ligand concentrations. For a better comparison, the fluorescence intensities were normalized. The maximal change in fluorescence for each of the stimulation series was defined as 100%. The EC50 values were determined from a nonlinear regression plot (four parameters) using GraphPad Prism v5.04 for analysis and display.
In order to omit loading with the fluorescent dye, both the DmOctα1B-expressing cells and flpTM-DmOctβ1 cells were stably transfected with a construct encoding the cytosolic version of GCaMP3.0. As in the previous experiment with Fluo-4, the GCaMP3.0-expressing cell lines were seeded in 96 well plates and incubated with the same series of increasing octopamine concentrations. The GCaMP3.0 was excited at 485 nm and the fluorescence emission was recorded at 510 nm. The basal fluorescence (F0) was recorded before adding the octopamine concentration series. The fluorescence intensities were normalized to the maximal change in fluorescence, defined as 100%. The concentration–response curves were generated with GraphPad Prism v5.04. In Figure 1, the concentration–response curves obtained with Fluo-4 and GCaMP3.0 are depicted for both of the receptors. […]

EC50 (DmOctα1B cells loaded with Fluo-4, 96 MWP plate reader, read-out: EC50): ~12 nM and 12 nM | EC50 (DmOctα1B-GCaMP3.0 cells, 96 MWP plate reader, read-out: EC50): 14 nM | EC50 (DmOctα1B-GCaMP3.0 cells, 96 MWP, given as logEC50 (negative), read-out: logEC50 ± SD (converted)): 15.8 nM
SMILES: NCC(O)c1ccc(O)cc1 (stereo not drawn) [octopamine]
